In patent US6645736B2, “Calcium independent cytosolic phospholipase A2/B enzymes” (Genetics Institute, LLC, priority 1994, dated 2003):

What was measured:
[1] = biological target: T1, calcium independent cytosolic phospholipase A2/B (Cricetulus griseus, UniProt A0A3L7I2I8); assay: Phospholipase hydrolysis assays, format not specified; format: biochemical, Chinese hamster
T1 construct: purified from the cytosol of Chinese hamster ovary (CHO) cells; endogenous in cells; host or cells: CHO cells (cytosol; Mono P / heparin / size-exclusion fractions)
T1 sequence (A0A3L7I2I8 1-752 isoform A0A3L7I2I8-2): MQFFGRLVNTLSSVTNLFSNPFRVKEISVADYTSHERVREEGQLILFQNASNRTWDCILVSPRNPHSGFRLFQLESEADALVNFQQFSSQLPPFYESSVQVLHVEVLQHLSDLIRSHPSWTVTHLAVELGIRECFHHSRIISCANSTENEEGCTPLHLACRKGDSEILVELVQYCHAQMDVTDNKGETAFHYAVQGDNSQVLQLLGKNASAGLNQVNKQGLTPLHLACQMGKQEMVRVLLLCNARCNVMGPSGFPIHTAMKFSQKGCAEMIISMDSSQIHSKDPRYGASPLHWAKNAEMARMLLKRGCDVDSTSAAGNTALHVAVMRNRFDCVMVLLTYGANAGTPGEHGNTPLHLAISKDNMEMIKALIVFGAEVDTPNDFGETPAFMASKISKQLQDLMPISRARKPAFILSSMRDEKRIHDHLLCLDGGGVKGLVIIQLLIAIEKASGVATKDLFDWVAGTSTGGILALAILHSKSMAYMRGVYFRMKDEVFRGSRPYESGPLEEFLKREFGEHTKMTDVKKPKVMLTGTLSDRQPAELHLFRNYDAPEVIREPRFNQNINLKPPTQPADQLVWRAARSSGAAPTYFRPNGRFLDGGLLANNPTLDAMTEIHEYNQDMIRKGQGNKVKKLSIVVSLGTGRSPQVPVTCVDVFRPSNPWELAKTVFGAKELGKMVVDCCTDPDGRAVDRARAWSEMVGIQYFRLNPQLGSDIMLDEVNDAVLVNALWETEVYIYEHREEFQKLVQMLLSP
Procedure: 1. sn-2 Hydrolysis Assays
(§1) A) Liposome: The lipid, e.g. 1-palmitoyl-2-[^14C]arachidonyl-sn-glycero-3-phosphocholine (PAPC), 55 mCi/mmol, was dried under a stream of nitrogen and solubilized in ethanol. The assay buffer contained 100 mM Tris-HCl pH 7, 4 mM EDTA, 4 mM EGTA, 10% glycerol and 25 μM of labelled PAPC, where the volume of ethanol added was no more than 10% of the final assay volume. The reaction was incubated for 30 minutes at 37° C. and quenched by the addition of two volumes of heptane:isopropanol:0.5M sulfuric acid (105:20:1 v/v). Half of the organic was applied to a disposable silica gel column in a vacuum manifold positioned over a scintillation vial, and the free arachidonic was eluted by the addition of ethyl ether (1 ml). The level of radioactivity was measured by liquid scintillation.
B) Mixed Micelle Basic: The lipid was dried down as in (A) and to this was added the assay buffer consisting of 80 mM glycine pH 9, 5 mM CaCl2 or 5 mM EDTA, 10% or 70% glycerol and […] triton X-100. The mixture was then sonicated for 30-60 seconds at 4° C. to form mixed micelles.
C) Mixed Micelle Neutral: As for (B) except 100 mM Tris-HCl pH 7 was used instead of glycine as the buffer.
Sn-1 hydrolysis assays are performed as described above for […], but using phospholipids labelled at the sn-1 substituent, e.g. 1-[^14C]-palmitoyl-2-arachidonyl-sn-glycero-3-phophocholine.

[2] = biological target: T1, calcium independent cytosolic phospholipase A2/B; assay: Liposome assay (Example 3A); format: biochemical, Chinese hamster; details: assay of Example 3A (liposome)
Procedure: as §1, with “The reaction was incubated for 30 minutes at 37° C. and quenched by the addition of two volumes of heptane:isopropanol:0.5M sulfuric acid (105:20:1 v/v).” left out
Variations on this assay replace EDTA and EGTA with 10 mM CaCl2.

cPLA2 = biological target: T2, cPLA2 (Homo sapiens, UniProt P47712); details: comparison enzyme; cited from earlier work
T2 sequence (P47712 1-749): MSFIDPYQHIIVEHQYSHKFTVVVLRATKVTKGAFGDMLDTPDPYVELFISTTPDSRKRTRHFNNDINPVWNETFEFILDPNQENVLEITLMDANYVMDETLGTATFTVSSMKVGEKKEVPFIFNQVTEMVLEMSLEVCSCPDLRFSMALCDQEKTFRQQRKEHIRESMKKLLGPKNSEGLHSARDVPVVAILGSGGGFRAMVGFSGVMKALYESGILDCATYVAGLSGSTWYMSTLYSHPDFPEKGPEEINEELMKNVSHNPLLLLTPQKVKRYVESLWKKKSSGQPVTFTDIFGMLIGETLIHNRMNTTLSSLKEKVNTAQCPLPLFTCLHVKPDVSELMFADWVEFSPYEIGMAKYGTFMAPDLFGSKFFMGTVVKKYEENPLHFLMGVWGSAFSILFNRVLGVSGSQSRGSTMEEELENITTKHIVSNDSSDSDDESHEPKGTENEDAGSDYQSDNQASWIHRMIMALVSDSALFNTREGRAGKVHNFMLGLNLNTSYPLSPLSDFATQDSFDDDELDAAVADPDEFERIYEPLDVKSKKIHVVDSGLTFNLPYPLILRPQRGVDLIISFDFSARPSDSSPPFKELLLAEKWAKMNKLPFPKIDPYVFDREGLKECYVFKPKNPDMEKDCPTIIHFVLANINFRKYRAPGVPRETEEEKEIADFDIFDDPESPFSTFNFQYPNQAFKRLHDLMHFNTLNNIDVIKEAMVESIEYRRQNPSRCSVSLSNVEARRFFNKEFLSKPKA

In the case of `C[C@H](CCC(=O)NCCC[N+](C)(C)CCCS(=O)(=O)[O-])[C@H]1CC[C@H]2[C@@H]3[C@H](O)C[C@@H]4C[C@H](O)CC[C@]4(C)[C@H]3C[C@H](O)[C@]12C` [CHAPS], the “inactivation of the enzyme by detergents” value [1] is reported as “inactivated”.

For `Nc1ncnc2c1ncn2[C@@H]1O[C@H](COP(=O)(O)OP(=O)(O)OP(=O)(O)O)[C@@H](O)[C@H]1O` [adenosine triphosphate], the “effect on enzyme activity” value [2] was “not stimulated”.

With `[Ca+2]` [calcium] the “effect on enzyme activity” value ([1]; in all assays) was “suppressed”.

With `CCCCCCCCO[C@@H]1O[C@H](CO)[C@@H](O)[C@H](O)[C@H]1O` [octyl glucoside] the “inactivation of the enzyme by detergents” value [1] was “inactivated”.

For `NC(N)=O` [urea], the “denaturant concentration that inactivates the enzyme” value ([1]; high concentration denaturants) was “above 3 M”.

With triton X-100 the “effect on enzyme activity” value [2] was “suppressed”.

B1: cPLA2: 110 kD calcium dependent cytosolic phospholipase A2 of U.S. Pat. No. 5,322,776 (protein, UniProt P47712 1-749, looked up)
Cytosolic phospholipase A2: T2 sequence (P47712 1-749)
For B1, the pH optimum (cPLA2) is listed as “greater than 8”.

B2: calcium independent phospholipase: 86 kD calcium independent cytosolic phospholipase enzyme purified from the cytosol of CHO cells, SEQ ID NO:2 (protein)
chain: T1 sequence (A0A3L7I2I8 1-752 isoform A0A3L7I2I8-2)
In the case of B2, the pH optimum [1] is reported as 6 and the “initial rate of hydrolysis, sn-2 position higher than sn-1” value ([1]; PAPC with either palmitoyl or arachidonyl labelled with 14C) is reported as 2-3 fold.
